Measured values from patent publication EP4353712A1 (Biodol Therapeutics, priority 2022, dated 2024).
Where a name gives a salt, the structure may show the parent alone.

Molecular target: T1, FLT3 (Homo sapiens, UniProt P36888)
T1 construct: expressed in transfected cells; host or cells: HEK293T
T1 sequence (P36888 27-993): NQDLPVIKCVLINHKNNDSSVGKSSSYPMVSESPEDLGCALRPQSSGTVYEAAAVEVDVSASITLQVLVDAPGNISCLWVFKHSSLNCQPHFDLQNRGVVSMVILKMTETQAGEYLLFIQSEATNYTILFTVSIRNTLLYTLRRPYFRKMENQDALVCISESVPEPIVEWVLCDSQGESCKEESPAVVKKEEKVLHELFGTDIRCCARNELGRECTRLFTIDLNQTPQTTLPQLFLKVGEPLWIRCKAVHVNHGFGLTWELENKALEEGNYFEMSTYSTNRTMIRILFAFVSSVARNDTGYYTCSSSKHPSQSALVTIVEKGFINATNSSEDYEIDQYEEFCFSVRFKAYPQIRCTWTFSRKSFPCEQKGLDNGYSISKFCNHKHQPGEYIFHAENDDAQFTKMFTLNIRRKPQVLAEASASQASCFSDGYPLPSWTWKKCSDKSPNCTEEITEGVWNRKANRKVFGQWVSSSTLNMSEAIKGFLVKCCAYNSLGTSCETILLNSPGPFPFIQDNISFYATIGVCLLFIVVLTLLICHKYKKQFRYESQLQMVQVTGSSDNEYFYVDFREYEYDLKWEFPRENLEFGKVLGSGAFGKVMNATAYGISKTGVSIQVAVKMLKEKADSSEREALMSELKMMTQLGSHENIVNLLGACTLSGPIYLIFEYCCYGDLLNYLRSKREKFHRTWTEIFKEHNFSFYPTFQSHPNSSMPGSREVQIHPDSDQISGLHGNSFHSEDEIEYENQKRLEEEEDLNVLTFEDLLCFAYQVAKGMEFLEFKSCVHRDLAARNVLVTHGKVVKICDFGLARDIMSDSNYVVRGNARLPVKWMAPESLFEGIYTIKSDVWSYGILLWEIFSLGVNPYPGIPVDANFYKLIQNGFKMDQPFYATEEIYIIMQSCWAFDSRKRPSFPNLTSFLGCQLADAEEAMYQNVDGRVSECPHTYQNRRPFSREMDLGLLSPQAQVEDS
Assay: HTRF binding assay of FL to FLT3 (TR-FRET, SNAP-FLT3 transfected HEK293T cells)
Settings: HEK293T cells transfected with SNAP-FLT3, labelled with SNAP-Lumi4-Tb; compounds 1 h at room temperature, then FL-d2 (0.5 nM), read after 20 h; 12 dilutions in triplicates, performed twice; read-out: Inhibition of FLT3 binding IC50, binding
Description: The binding of FL to FLT3 was measured by a Homologous Time-Resolved Fluorescence (HTRF) assay (Degorce et al., Current Chemical Genomics, 2009, 3, 22-32), which involves resonance energy transfer between a donor, Lumi4-Tb-donor-derivatized benzylguanine substrate (SNAP-Lumi4-Tb, excitation: 337 nm, emission: 630 nm, Cisbio, France), transfected in HEK cells, and an acceptor, red fluorescent FL (FL-d2, excitation: 620 nm, emission: 660 nm, Cisbio, France). When FL-d2 binds to the SNAP-Lumi4-Tb-tagged FLT3 receptor, the proximity of both fluorophores allows the time-resolved Förster resonance energy transfer (TR-FRET) signal to occur and the binding is measured as the ratio between the fluorescent emissions at 660 to 620 nm.
The detailed method is described in Rivat et al. (Nature Communications, 2018, 9 :1042). Briefly, HEK293T cells were transfected with a pCDNA3.1 SNAP-FLT3 plasmid by using Lipofectamine (Invitrogen), and were than labelled with SNAP-Lumi4-Tb. Plates containing attached transfected HEK293T cells were incubated with compounds of formula (I) for 1 h at room temperature. A series of 12 dilutions in triplicates was used for each compound and the experiment was performed twice. Then FL-d2 (0.5 nM) was added and the TR-FRET signal was read after 20 h incubation at room temperature with a HTRF-compatible reader (Envision, Perkin Elmer) allowing a donor excitation at 337 nm and a signal collection both at 615 nm and 665 nm (20 flashes, delay 50 µs, integration time 400 µs). Then HTRF ratio, obtained by dividing the acceptor signal (665 nm) by the donor signal (615 nm), was calculated at each concentration of test compounds. Non-specific binding was measured in the presence 50 µM of BDT001 (Rivat et al., ibid.). Concentration giving 50 % inhibition (IC50) were calculated by non-linear regression analysis for a one-site model, with variable slope (Prism®, Graphpad software, USA).

| SMILES | IC50 [nM] |
| --- | --- |
| CN(C)CCOc1ccc(C(=O)Nc2ccc(F)c3ccncc23)cc1 [(22), 4-(2-(dimethylamino)ethoxy)-N-(5-fluoroisoquinolin-8-yl)benzamide] | 1900 |
| CN(C)CCOc1ccc(C(=O)Nc2ccc(F)c3nccnc23)cc1 [(23), 4-(2-(dimethylamino)ethoxy)-N-(8-fluoroquinoxalin-5-yl)benzamide] | 500 |
| CN1CCN(c2ccc(C(=O)Nc3cccc4cnccc34)cc2F)CC1 [(24), 3-fluoro-N-(isoquinolin-5-yl)-4-(4-methylpiperazin-1-yl)benzamide] | 1100 |
| CN1CCC(c2ccc(C(=O)Nc3cccc4cnccc34)c(S(C)(=O)=O)c2)CC1 [(25), N-(isoquinolin-5-yl)-2-methanesulfonyl-4-(1-methylpiperidin-4-yl)benzamide] | 2600 |
| CN(C)CCOc1ccc(C(=O)Nc2ccc(F)c3cccnc23)cc1 [(26), 4-[2-(dimethylamino)ethoxy]-N-(5-fluoroquinolin-8-yl)benzamide] | 1400 |
| CN1CCC(c2ccc(C(=O)Nc3cccc4ncccc34)cc2C(F)(F)F)CC1 [(27), 4-(1-methylpiperidin-4-yl)-N-(quinolin-5-yl)-3-(trifluoromethyl)benzamide] | 3600 |
| CN1CCC(c2ccc(C(=O)Nc3cccc4nccnc34)cc2)CC1 [(28), 4-(1-methylpiperidin-4-yl)-N-(quinoxalin-5-yl)benzamide] | 400 |
| Cc1cc(C(=O)Nc2cccc3ncccc23)ccc1N1CCN(C)CC1 [(29), 3-methyl-4-(4-methylpiperazin-1-yl)-N-(quinolin-5-yl)benzamide] | 1200 |
| CN1CCC(c2ccc(C(=O)Nc3ccc(Cl)c4ncccc34)cc2)CC1 [(30), N-(8-chloroquinolin-5-yl)-4-(1-methylpiperidin-4-yl)benzamide] | 1900 |
| CN(C)CCOc1ccc(C(=O)Nc2cccc3nccnc23)cc1 [(31), 4-[2-(dimethylamino)ethoxy]-N-(quinoxalin-5-yl)benzamide] | 700 |
| CN(C)CCOc1ccc(C(=O)Nc2ccc(Cl)c3ncccc23)cc1 [(32), N-(8-chloroquinolin-5-yl)-4-[2-(dimethylamino)ethoxy]benzamide] | 2400 |
| CN(C)CCOc1ccc(C(=O)Nc2ccc(F)c3cnccc23)cc1 [(33), 4-[2-(dimethylamino)ethoxy]-N-(8-fluoroisoquinolin-5-yl)benzamide] | 2300 |
| COc1ccc(NC(=O)c2ccc(OCCN(C)C)cc2)c2ccncc12 [(34)] | 500 |
| CN1CCN(c2ccc(C(=O)Nc3cccc4cccnc34)cc2)CC1 [(35), 4-(4-methylpiperazin-1-yl)-N-(quinolin-8-yl)benzamide] | 1700 |
| CN(C)CCOc1ccc(C(=O)Nc2cccc3ccncc23)cc1C#N [(36), 3-cyano-4-(2-(dimethylamino)ethoxy)-N-(isoquinolin-8-yl)benzamide] | 2500 |
| CN1CCN(c2ccc(C(=O)Nc3ccc(F)c4nccnc34)cc2)CC1 [(37), N-(8-fluoroquinoxalin-5-yl)-4-(4-methylpiperazin-1-yl)benzamide] | 700 |

| SMILES | IC50 [nM] |
| --- | --- |
| CN1CCN(c2ccc(C(=O)Nc3cccc4ccncc34)cc2)CC1 [(38), N-(isoquinolin-8-yl)-4-(4-methylpiperazin-1-yl)benzamide] | 600 |
| CN1CCN(c2ccc(C(=O)Nc3cccc4cnccc34)cc2)CC1 [(39), N-(isoquinolin-5-yl)-4-(4-methylpiperazin-1-yl)benzamide] | 800 |
| CN1CCN(c2ccc(C(=O)Nc3cccc4ncccc34)cc2)CC1 [(40), 4-(4-methylpiperazin-1-yl)-N-(quinolin-5-yl)benzamide] | 1700 |
| CN1CCN(c2ccc(C(=O)Nc3cccc4nccnc34)cc2)CC1 [(41), 4-(4-methylpiperazin-1-yl)-N-(quinoxalin-5-yl)benzamide] | 600 |
| CN1CCN(c2ccc(C(=O)Nc3ccc(F)c4cccnc34)cc2)CC1 [(42), N-(5-fluoroquinolin-8-yl)-4-(4-methylpiperazin-1-yl)benzamide] | 3100 |
| Cc1cc(C(=O)Nc2cccc3cccnc23)ccc1OCCN(C)C [(43), 4-(2-(dimethylamino)ethoxy)-3-methyl-N-(quinolin-8-yl)benzamide] | 2100 |
| CN1CCN(c2ccc(C(=O)Nc3ccc(F)c4ncccc34)cc2)CC1 [(44), N-(8-fluoroquinolin-5-yl)-4-(4-methylpiperazin-1-yl)benzamide] | 3800 |
| Cc1cc(N2CCN(C)CC2)ccc1C(=O)Nc1cccc2cnccc12 [(45), N-(isoquinolin-5-yl)-2-methyl-4-(4-methylpiperazin-1-yl)benzamide] | 1000 |
| CN1CCN(c2ccc(C(=O)Nc3ccc(Cl)c4ncccc34)cc2)CC1 [(46), N-(8-chloroquinolin-5-yl)-4-(4-methylpiperazin-1-yl)benzamide] | 1000 |
| Cc1cc(OCCN(C)C)ccc1C(=O)Nc1cccc2ncccc12 [(47), 4-(2-(dimethylamino)ethoxy)-2-methyl-N-(quinolin-5-yl)benzamide] | 1700 |
| CN(C)CCOc1ccc(C(=O)Nc2cccc3cnccc23)cc1C(F)(F)F [(48), 4-(2-(dimethylamino)ethoxy)-N-(isoquinolin-5-yl)-3-(trifluoromethyl)benzamide] | 1300 |
| CN(C)CCOc1ccc(C(=O)Nc2cccc3ncccc23)c(C(F)(F)F)c1 [(49), 4-(2-(dimethylamino)ethoxy)-N-(quinolin-5-yl)-2-(trifluoromethyl)benzamide] | 2400 |
| COc1cc(C(=O)Nc2cccc3ncccc23)ccc1N1CCN(C)CC1 [(50), 3-methoxy-4-(4-methylpiperazin-1-yl)-N-(quinolin-5-yl)benzamide] | 2300 |
| CN1CCN(c2ccc(C(=O)Nc3ccc(Cl)c4cnccc34)cc2)CC1 [(51), N-(8-chloroisoquinolin-5-yl)-4-(4-methylpiperazin-1-yl)benzamide hydrochloride] | 1300 |
| CN1CCN(c2ccc(C(=O)Nc3ccc(C(F)(F)F)c4ccncc34)cc2)CC1 [(52), 4-(4-methylpiperazin-1-yl)-N-[5-(trifluoromethyl)isoquinolin-8-yl]benzamide hydrochloride] | 7500 |
